Results published in publication PMC11091220, “Metabolism-driven in vitro/in vivo disconnect of an oral ERɑ VHL-PROTAC” (Communications Biology, 2024).
Several values for one entry are separate records, joined by “and”; a condition that tells them apart may be missing. Equal values may be shown once. Read-outs that look alike come from different tables or passages of the source.

What was measured:
[1] = Mouse pharmacokinetics, i.v./oral and enabling formulations; assay type: in vivo
Description: (*) AUC0-6 (data BLQ beyond 6 hours). TEXT PRINTED IN THE PICTURE: (e) Formulation SF: Dose normalised Cmax (μM): 0.009 (Oral dose (mg/kg): 1); Dose normalised AUC0-12 (μM.h): 0.02* (Oral dose (mg/kg): 1) | (e) Formulation EF1: Dose normalised Cmax (μM): 0.023 (Oral dose (mg/kg): 100); Dose normalised AUC0-12 (μM.h): 0.22 (Oral dose (mg/kg): 100) | (e) Formulation EF2: Dose normalised Cmax (μM): 0.002 (Oral dose (mg/kg): 100); Dose normalised AUC0-12 (μM.h): 0.009 (Oral dose (mg/kg): 100) | (e) Formulation EF3: Dose normalised Cmax (μM): 0.045 (Oral dose (mg/kg): 100); Dose normalised AUC0-12 (μM.h): 0.12 (Oral dose (mg/kg): 100); Dose normalised Cmax (μM): 0.016 (Oral dose (mg/kg): 30); Dose normalised AUC0-12 (μM.h): 0.06* (Oral dose (mg/kg): 30); Dose normalised Cmax (μM): 0.017 (Oral dose (mg/kg): 10); Dose normalised AUC0-12 (μM.h): 0.06* (Oral dose (mg/kg): 10) | (e) Formulation EF4: Dose normalised Cmax (μM): 0.022 (Oral dose (mg/kg): 100); Dose normalised AUC0-12 (μM.h): 0.10 (Oral dose (mg/kg): 100) | (e) Formulation EF5: Dose normalised Cmax (μM): 0.050 (Oral dose (mg/kg): 100); Dose normalised AUC0-12 (μM.h): 0.25 (Oral dose (mg/kg): 100); Dose normalised Cmax (μM): 0.013 (Oral dose (mg/kg): 30); Dose normalised AUC0-12 (μM.h): 0.045* (Oral dose (mg/kg): 30); Dose normalised Cmax (μM): 0.023 (Oral dose (mg/kg): 10); Dose normalised AUC0-12 (μM.h): 0.076* (Oral dose (mg/kg): 10)
Each plasma sample ([…]) was prepared using an appropriate dilution factor, and compared against an 11-point standard calibration curve (1-10000 nM) prepared in DMSO and spiked into blank plasma. Acetonitrile ([…]) was added with the internal standard, followed by centrifugation at 3000 rpm for 10 minutes. The supernatant ([…]) was then diluted in […] acetonitrile:water (75:25) and analyzed via UPLC-MS/MS.
The MS/MS instrument used was either a Waters XEVO® TQ-S, Waters XEVO® TQ-D, or API 4000 (AB Sciex). The ultra-mass spectrometer used for sample analysis was completed in the MRM mode (MS/MS). Reverse-phase HPLC with a C18 column was used to separate the analytes. A mobile phase of 99% water/0.1% formic acid (solvent A) and a solvent phase of 99% acetonitrile/0.1% formic acid (solvent B) was used. A generic LC gradient elution was used at a flow rate of 0.5 mL/min with 95% solvent A and 5% solvent B for 0.3 min after which the concentration of solvent B was increased to 95% over 0.9 min before restoring it back to 5% for the remaining 0.5 min. Mass spectrometer methods were optimised for each compound.

[2] = Solution NMR hydrogen-bond donor shielding (A-NMR, temperature-dependent shift); assay type: physicochemical; conditions: N-terminal amide HBD of (S,R,S)-AHPC
Description: 1. Supplementary Note 1: 3D Conformer of AZ’6421 (5) free in solution
PROTACs are prone to intramolecular interactions that can substantially modify their drug-like properties.1 Here we used solution NMR spectroscopy to determine the 3D conformer of 5 free in solution. Initially, water/DMSO mixtures were utilised to enhance solubility of these highly lipophilic compounds in a relevant protic solvent. However, The 1D 1H-NMR signals of 5 in a mixture of DMSO […]
pure DMSO was used for simplicity. By two 1D 1H-NMR based methods A-NMR2 and temperature- […]
values are both indicative of HBD shielding, whereas the benzyl-amide NH donor of the VHL binding motif and the indole NH in the ERα binding substructure show values characteristic of solvent exposure. By 2D rotating-frame nuclear Overhauser effect (NOE) and 1H-13C long-range correlation (13C-HSQMBC) NMR spectroscopy we determined distance and tortional angle restraints for 3D structure calculation showing an intra-molecular H-bond to the ether oxygen proximal to the N-terminus of (S,R,S)-AHPC. Deletion of this ether oxygen from the N-terminus of (S,R,S)-AHPC produces a large chemical change of 0.6 ppm for the NH donor, whereas most other 1H signals remain unchanged (Figure S3). […]

PGR mRNA = assay: PD study in CTC174 PDX model, tumour PGR mRNA by qPCR; assay type: in vivo, mouse; conditions: 100 mg/kg BID, 4 days, individual animals; listed as AZ'6421

## Cc1ncsc1-c1ccc(CNC(=O)[C@@H]2C[C@@H](O)CN2C(=O)[C@@H](NC(=O)COCCCOCCCOc2cc(F)c([C@@H]3c4[nH]c5ccccc5c4C[C@@H](C)N3CC(C)(C)F)c(F)c2)C(C)(C)C)cc1 [Compound 5]
[1]; IV 0.5 mg/kg, mouse, 0.03 h, listed as AZ'6421, 0.5 mg/kg
  Plasma conc (total): 1.77 µM
[1]; IV 0.5 mg/kg, 0.17 h, listed as AZ'6421, 0.5 mg/kg
  Plasma conc (total): 0.219 µM
[1]; IV 0.5 mg/kg, 0.5 h, listed as AZ'6421, 0.5 mg/kg
  Plasma conc (total): 0.0582 µM
[1]; IV 0.5 mg/kg, 1 h, listed as AZ'6421, 0.5 mg/kg
  Plasma conc (total): 0.0279 µM
[1]; IV 0.5 mg/kg, 2 h, listed as AZ'6421, 0.5 mg/kg
  Plasma conc (total): 0.0152 µM
[1]; IV 0.5 mg/kg, 4 h, listed as AZ'6421, 0.5 mg/kg
  Plasma conc (total): 0.00674 µM
[1]; IV 0.5 mg/kg, 6 h, listed as AZ'6421, 0.5 mg/kg
  Plasma conc (total): 0.00438 µM
[1]; IV 0.5 mg/kg, 8 h, listed as AZ'6421, 0.5 mg/kg
  Plasma conc (total): 0.00282 µM
[1]; Oral 1 mg/kg in SF, mouse, 0.5 h, listed as AZ'6421, 1 mg/kg
  Plasma conc (total): 0.00403 µM
[1]; Oral 1 mg/kg in SF, 1 h, listed as AZ'6421, 1 mg/kg
  Plasma conc (total): 0.00669 µM
[1]; mouse, plasma, iv, 0.5 mg/kg, IV 0.5 mg/kg, mouse, 0.03 h, read-out: Plasma conc (total)
  concentration at 0.03 h: 1990 nM
[1]; mouse, plasma, iv, 0.5 mg/kg, IV 0.5 mg/kg, 0.17 h, read-out: Plasma conc (total)
  concentration at 0.17 h: 261 nM
[1]; mouse, plasma, iv, 0.5 mg/kg, IV 0.5 mg/kg, 0.5 h, read-out: Plasma conc (total)
  concentration at 0.5 h: 89 nM
[1]; mouse, plasma, iv, 0.5 mg/kg, IV 0.5 mg/kg, 1 h, read-out: Plasma conc (total)
  concentration at 1 h: 41.9 nM
[1]; mouse, plasma, iv, 0.5 mg/kg, IV 0.5 mg/kg, 2 h, read-out: Plasma conc (total)
  concentration at 2 h: 16.9 nM
[1]; mouse, plasma, iv, 0.5 mg/kg, IV 0.5 mg/kg, 4 h, read-out: Plasma conc (total)
  concentration at 4 h: 7.09 nM
[1]; mouse, plasma, iv, 0.5 mg/kg, IV 0.5 mg/kg, 6 h, read-out: Plasma conc (total)
  concentration at 6 h: 3.27 nM
[1]; mouse, plasma, iv, 0.5 mg/kg, IV 0.5 mg/kg, 8 h, read-out: Plasma conc (total)
  concentration at 8 h: 2.02 nM
[1]; mouse, plasma, iv, 0.5 mg/kg i.v., read-out: mouse in vivo clearance
  clearance: 22 mL/min/kg
[1]; mouse, plasma, po, 1 mg/kg, Oral 1 mg/kg in SF, mouse, 0.5 h, read-out: Plasma conc (total)
  concentration at 0.5 h: 2.24 nM
[1]; mouse, plasma, po, 1 mg/kg, Oral 1 mg/kg in SF, 1 h, read-out: Plasma conc (total)
  concentration at 1 h: 9.06 nM
[1]; mouse, plasma, po, 1 mg/kg, Oral 1 mg/kg in SF, 4 h, read-out: Plasma conc (total)
  concentration at 4 h: 2.98 nM
[1]; plasma, po, 1 mg/kg p.o., SF, mouse, read-out: oral exposure (AUC)
  AUC: 0.02 µM·h
[2]
  A-NMR value: 0.03
[2]; DMSO
  temperature-dependent perturbation: -2.6 ppb/K
PGR mRNA
  PGR mRNA expression in tumour (% of vehicle): 12.5811% and 15.4178% and 10.0087% and 25.9295% and 45.882%
